Results on nine molecules are retold here after patent US9090583B2, “Benzopyrone estrogen receptor regulator” (BEIJING SHENOGEN PHARMA GROUP LTD., priority 2010, dated 2015).

For experiment [1], the system named is CoC1 cells. Kind of experiment: CellTiter-Glo Luminescent Cell Viability Assay on ovary cancer CoC1 cells. Format: cell-based. As to conditions: 72 hours, read-out: Inhibition of the viability of ovary cancer cells, IC50. The method, then:
B: In Vitro CellTiter-Glo® Luminescent Cell Viability Assay on Ovary Cancer CoC1 Cells
(§1) The ovary cancer CoC1 cells were obtained from Cancer hospital, Chinese Academy of Medical Sciences and maintained in RPMI-1640 and 10% fetal calf serum at 37° C., under 5% CO2 atmosphere. The cells were seeded on 96-well plate at a density of 6×10^3 cells per well. CoC1 cells were treated with a test compound dissolved in DMSO at the concentrations of zero, 0.3 μM, 0.5 μM, 1 μM, 2 μM, 3 μM, 5 μM, 10 μM, 30 μM, 50 μM and 100 μM for 72 hours. Treated cells were examined by CellTiter-Glo® Luminescent Cell Viability Assay Kit (Promega), and luminescence values were recorded with Envision.

Experiment [2] concerns HL-60 cells. Nature of the experiment: CellTiter-Glo Luminescent Cell Viability Assay on leukemia HL-60 cells. Format: cell-based, human. As to conditions: 72 hours, read-out: Inhibition of the viability of leukemia cells, IC50. The method, then:
B: In Vitro CellTiter-Glo® Luminescent Cell Viability Assay on Leukemia HL-60 Cells
The leukemia HL-60 cells were obtained from ATCC and maintained in IMDM and 10% fetal calf serum at 37° C., under 5% CO2 atmosphere. The cells were seeded on 96-well plate at a density of 6×10^3 cells per well. HL-60 cells were treated with a test compound dissolved in DMSO at the concentrations of zero, 0.3 μM, 0.5 μM, 1 μM, 2 μM, 3 μM, 5 μM, 10 μM, 20 μM, 30 μM, 50 μM and 100 μM for 72 hours. Treated cells were examined by CellTiter-Glo® Luminescent Cell Viability Assay Kit (Promega), and luminescence values were recorded with Envision.

Experiment [3] concerns HO8910 cells. Nature of the experiment: CellTiter-Glo Luminescent Cell Viability Assay on ovary cancer HO8910 cells. Format: cell-based. As to conditions: HO-8910 cells; 72 hours; read-out: Inhibition of the viability of ovary cancer cells, IC50. On the procedure:
A: In Vitro CellTiter-Glo® Luminescent Cell Viability Assay on Ovary Cancer HO8910 Cells
Ovary cancer HO8910 cells were obtained from Type Culture Collection of the Chinese Academy of Sciences, Shanghai, and maintained in RPMI-1640 and 10% fetal calf serum at 37° C., under 5% CO2 atmosphere. The cells were seeded on 96-well plate at a density of 6×10^3 cells per well. HO8910 cells were treated with a test compound dissolved in DMSO at the concentrations of zero, 0.3 μM, 0.5 μM, 1 μM, 2 μM, 3 μM, 5 μM, 10 μM, 20 μM, 30 μM, 50 μM and 100 μM for 72 hours. Treated cells were examined by CellTiter-Glo® Luminescent Cell Viability Assay Kit (Promega), and luminescence values were recorded with Envision.

Experiment [4] deals with MCF7 cells. Kind of experiment: CellTiter-Glo Luminescent Cell Viability Assay on ER-positive breast cancer MCF-7 cells. As to conditions: average ± standard deviation when tested more than 3 times, read-out: Inhibition of the viability of breast cancer cells, IC50. Format: cell-based, human. In outline: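 MCF7 cells (DMEM, 10% FCS, 37 °C) treated 72 h with compound at 0–100 μM (0.3, 0.5, 1, 2, 3, 5, 10, 20, 30, 50, 100 μM). Viability measured by CellTiter-Glo luminescence.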

The test system of experiment [5] is Molt-4 cells. Nature of the experiment: CellTiter-Glo Luminescent Cell Viability Assay on leukemia Molt-4 cells. Format: cell-based. As to conditions: 72 hours, read-out: Inhibition of the viability of leukemia cells, IC50. On the procedure:
C: In Vitro CellTiter-Glo® Luminescent Cell Viability Assay on Leukemia Molt-4 Cells
The leukemia Molt-4 cells were obtained from ATCC and maintained in RPMI-1640 and 10% fetal calf serum at 37° C., under 5% CO2 atmosphere. The cells were seeded on 96-well plate at a density of 6×10^3 cells per well. […] were treated with a test compound dissolved in DMSO at the concentrations of zero, 0.3 μM, 0.5 μM, 1 μM, 2 μM, 3 μM, 5 μM, 10 μM, 20 μM, 30 μM, 50 μM and 100 μM for 72 hours. Treated cells were examined by CellTiter-Glo® Luminescent Cell Viability Assay Kit (Promega), and luminescence values were recorded with Envision.

The subject of experiment [6] is SK-OV3 cells. Kind of experiment: CellTiter-Glo Luminescent Cell Viability Assay on ovary cancer SK-OV3 cells. Format: cell-based. As to conditions: read-out: Inhibition of the viability of ovary cancer cells, IC50. The method, then: C: In Vitro CellTiter-Glo® Luminescent Cell Viability Assay on Ovary Cancer SK-OV3 Cells
as §1, with “ovary cancer SK-OV3 cells were” for “ovary cancer CoC1 cells were”, “per well. SK-OV3 cells were” for “per well. CoC1 cells were”, “μM, 10 μM, 20 μM, 30” for “μM, 10 μM, 30”

In experiment [7] the test system is MDA-MB-231 cells. Kind of experiment: CellTiter-Glo Luminescent Cell Viability Assay on ER-negative breast cancer MDA-MB-231 cells. Format: cell-based. To be noted: average ± standard deviation when tested more than 3 times, read-out: Inhibition of the viability of breast cancer cells, IC50. The method in brief:
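Cells seeded at 6×10^3 per well in DMEM with 10% FCS and exposed 72 h to compound at 0 to 100 μM (twelve concentrations, DMSO vehicle). Viability measured by CellTiter-Glo luminescence.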

The test system of experiment [8] is K562 cells. Kind of experiment: CellTiter-Glo Luminescent Cell Viability Assay on leukemia K562 cells. Format: cell-based, human. To be noted: 72 hours, read-out: Inhibition of the viability of leukemia cells, IC50. On the procedure:
A: In Vitro CellTiter-Glo® Luminescent Cell Viability Assay on Leukemia K562 Cells
The leukemia K562 cells were obtained from ATCC and maintained in IMDM and 10% fetal calf serum at 37° C., under 5% CO2 atmosphere. The cells were seeded on 96-well plate at a density of 6×10^3 cells per well. K562 cells were treated with a test compound dissolved in DMSO at the concentrations of zero, 0.3 μM, 0.5 μM, 1 μM, 2 μM, 3 μM, 5 μM, 10 μM, 20 μM, 30 μM, 50 μM and 100 μM for 72 hours. Treated cells were examined by CellTiter-Glo® Luminescent Cell Viability Assay Kit (Promega), and luminescence values were recorded with Envision.

For experiment [9], the system named is Hep3B2.1-7 cells. Kind of experiment: MTT assay, in vitro growth of liver cancer Hep3B2.1-7 cells. As to conditions: 72 hours; for IC50: read-out: Inhibition on liver cancer cells, IC50. Format: cell-based. On the procedure: The liver cancer Hep3B2.1-7 cells were obtained from ATCC. Cells were incubated in 1640 culture medium with 5% fetal calf serum and 100 U/ml double-antibody in a cell incubator at 37° C., 5% CO2 atmosphere and passaged via conventional methods. The sample was dissolved in DMSO, formulated into 50 mg/ml stocking solution, and stored at 4° C. The test solutions at 50, 25, 12.5 and 6.25 μg/ml were formulated with culture medium immediately before use.
The adherent cells were digested with cell digestive solution, and then the exfoliated cells were collected and counted. The cell suspension was formulated with 1640 culture medium containing 5% fetal calf serum (5.0×10^4/ml). The cell suspension was seeded on 96-well plate with 100 μl/well, and maintained in a cell incubator at 37° C., 5% CO2 atmosphere for 24 hours. After that, the compounds at various concentrations were added, where solvent was taken as negative control and Taxol as positive control. 10 μl MTT (5 mg/ml) was added after 72 hours. The supernatant was removed after cultivation for 3 hours more, 150 μl DMSO was added and the formazan was dissolved on shaking. OD values were measured at 570 nm after homogeneous mixing, and inhibition rate and IC50 values were calculated based on the mean of OD values from 3 wells.

[10] abbreviates: Homo sapiens, SK-OV-3, 72 hours.

Converted amounts (≈) assume the structure as drawn. Where two headings read alike, the source gives them in different places.

For `COc1c(-c2cc(F)cc(F)c2)oc2c(CC=C(C)C)c(O)c(CC=C(C)C)c(O)c2c1=O` [Compound 2, 2-(3,5-difluorophenyl)-5,7-dihydroxy-3-methoxy-6,8-di(3-methyl-2-buten-1-yl)-4H-benzopyran-4-one], the IC50 in [1] is 5.19 µM; in [2] (Homo sapiens) it was greater than 100 µM; in [3], 15.7 µM; in experiment [4] (Homo sapiens, MCF7, 72 h), 6.51 ± 1.42 µM; in experiment [5] (Homo sapiens) it was greater than 100 µM; in [6] (setting [10]), 7.22 µM. Besides, the IC50 in [7] (Homo sapiens, MDA-MB-231, 72 h) is 11.3 ± 1.38 µM; in [8] (Homo sapiens) it was greater than 100 µM.

With `COc1c(-c2ccc(F)c(F)c2)oc2c(CC=C(C)C)c(O)c(CC=C(C)C)c(O)c2c1=O` [Compound 4, 2-(3,4-difluorophenyl)-5,7-dihydroxy-3-methoxy-6,8-di(3-methyl-2-buten-1-yl)-4H-benzopyran-4-one], the IC50 in experiment [9] is 1.38 µg/mL (≈ 3.02 µM); in experiment [2] (Homo sapiens), 10.1 µM; in experiment [3], 14 µM; in [4] (Homo sapiens, MCF7, 72 h) it was 4.95 ± 0.65 µM; in experiment [5] (Homo sapiens), 10.3 µM; in experiment [6] (setting [10]), 6.42 µM. The IC50 in [7] (Homo sapiens, MDA-MB-231, 72 h) was 6.37 ± 0.03 µM; in [8] (Homo sapiens), 8.65 µM.

On to `COc1c(-c2ccc(F)cc2)oc2c(CC=C(C)C)c(O)c(CC=C(C)C)c(O)c2c1=O` [Compound 7, 2-(4-fluorophenyl)-5,7-dihydroxy-3-methoxy-6,8-di(3-methyl-2-buten-1-yl)-4H-benzopyran-4-one], for which the IC50 in [9] is 1.09 µg/mL (≈ 2.49 µM); in experiment [1], greater than 100 µM; in experiment [3], 21.6 µM; in experiment [4] (Homo sapiens, MCF7, 72 h), 12.6 ± 0.68 µM; in experiment [6] (setting [10]), greater than 100 µM; in [7] (Homo sapiens, MDA-MB-231, 72 h), 10.9 ± 2.22 µM.

`COc1c(-c2ccc(F)c(Cl)c2)oc2c(CC=C(C)C)c(O)c(CC=C(C)C)c(O)c2c1=O` [Compound 8, 2-(3-chloro-4-fluorophenyl)-5,7-dihydroxy-3-methoxy-6,8-di(3-methyl-2-butylene-1-yl)-4H-benzopyran-4-one]: the “Inhibition on liver cancer cells, IC50” value in experiment [9] worked out at 1.46 µg/mL. In addition, the IC50 was 11.8 µM in experiment [1]; 17.9 µM in experiment [2]; 22.3 µM in experiment [3]; 8.58 ± 0.24 µM in experiment [4] (72 hours); 15.3 µM in [5]; 24.3 µM in [6] (72 hours). For the same molecule, the results for the IC50 in experiment [7] (72 hours) and in [8] were 9.96 ± 1.97 µM and 12.8 µM, respectively.

As to `COc1c(-c2cncs2)oc2c(CC=C(C)C)c(O)c(CC=C(C)C)c(O)c2c1=O` [Compound 25, 2-(thiazol-5-yl)-5,7-dihydroxy-3-methoxy-6,8-di(3-methyl-2-buten-1-yl)-4H-benzopyran-4-one], the IC50 in experiment [1] was 14.3 µM; in experiment [2] (Homo sapiens) it was greater than 100 µM; in [3], greater than 100 µM; in experiment [4] (Homo sapiens, MCF7, 72 h), 9.19 ± 2.47 µM; in [5] (Homo sapiens), greater than 100 µM; in experiment [6] (setting [10]), 12.6 µM. Also, the IC50 in experiment [7] (Homo sapiens, MDA-MB-231, 72 h) was 17.3 ± 6.5 µM; in experiment [8] (Homo sapiens), greater than 100 µM.

For `COc1cc(-c2oc3c(CC=C(C)C)c(O)c(CC=C(C)C)c(O)c3c(=O)c2OC)ccn1` [Compound 27, 2-(2-methoxypyridin-4-yl)-5,7-dihydroxy-3-methoxy-6,8-di(3-methyl-2-buten-1-yl)-4H-benzopyran-4-one], the IC50 in [1] came to 9.23 µM; in [3], 17.6 µM; in experiment [4] (Homo sapiens, MCF7, 72 h) it was 6.17 ± 0.05 µM; in [6] (setting [10]), 7.23 µM; in [7] (Homo sapiens, MDA-MB-231, 72 h), 10.3 ± 0.56 µM.

Consider `COc1c(-c2ccc(F)c(F)c2)oc2c(CC=C(C)C)c(O)c(CC=C(C)C)c(OC)c2c1=O` [Compound 83, 2-(3,4-difluorophenyl)-7-hydroxy-3,5-dimethoxy-6,8-di(3-methyl-2-buten-1-yl)-4H-benzopyran-4-one], for which the IC50 was greater than 100 µM in [2] (Homo sapiens); 10.6 ± 3.06 µM in experiment [4] (Homo sapiens, MCF7, 72 h); greater than 100 µM in experiment [5] (Homo sapiens); 11.3 ± 0.86 µM in [7] (Homo sapiens, MDA-MB-231, 72 h); greater than 100 µM in [8] (Homo sapiens).

`COc1c(-c2ccc(Cl)c(F)c2)oc2c(CC=C(C)C)c(O)c(CC=C(C)C)c(OC)c2c1=O` [Compound 84, 2-(3-fluoro-4-chlorophenyl)-7-hydroxy-3,5-dimethoxy-6,8-di(3-methyl-2-buten-1-yl)-4H-benzopyran-4-one]: the IC50 in experiment [1] stood at 23.4 µM; in [3] it was 23.4 µM; in experiment [4] (Homo sapiens, MCF7, 72 h) it was 6.89 µM; in [6] (setting [10]), 15.7 µM; in [7] (Homo sapiens, MDA-MB-231, 72 h), 13.5 µM.

On to `COc1ccc(-c2cc(=O)c3c(O)c(CC=C(C)C)c(O)c(CC=C(C)C)c3o2)cc1Cl` [Compound 90, 2-(3-chloro-4-trimethoxyphenyl)-5,7-dihydroxy-6,8-di(3-methyl-2butylene-1-yl)-4H-benzopyran-4-one], for which the IC50 is greater than 100 µM in experiment [1]; greater than 100 µM in [3]; 8.98 µM in experiment [4] (72 hours); greater than 100 µM in experiment [6] (72 hours); 10.7 ± 1.38 µM in [7] (72 hours).
